Patent publication US20250327791A1, “METHODS OF TREATMENT BASED ON PATIENT SPECIFIC CLINICAL TRIAL MODELS AND ASSOCIATED MODELS AND USES” (DUKE UNIVERSITY, priority 2017, published 2025)

What was measured:
[1] = test system: CRC16-159 PDX; assay: PDX studies accompanying the organoid studies (tumor growth inhibition); type: in vivo, mice; conditions: 10 mg/kg oxaliplatin weekly IP for three weeks
Source text: (§1) PDX studies accompanying the organoid studies were developed as described previously and in Uronis J M, Osada T, McCall S, Yang X Y, Mantyh C, Morse M A, et al. Histological and molecular evaluation of patient-derived colorectal cancer explants. PloS one 2012; 7:e38422, and Kim M K, Osada T, Barry W T, Yang X Y, Freedman J A, Tsamis K A, et al. Characterization of an oxaliplatin sensitivity predictor in a preclinical murine model of colorectal cancer. Molecular cancer therapeutics 2012; 11:1500-1509. Both of these references are hereby incorporated in their entirety. 6-8 week old NOD/SCID-beige mice were used and the tumors were measured twice a week as described above. Once tumors reached a size of 250 mm^3 mice were treated with either 10 mg/kg oxaliplatin or 20 mg/kg irinotecan weekly via IP (intraperitoneal injection) for three weeks with saline used as a control. PDX tumor sizes were recorded and one-way ANOVA analysis were carried out as described in the references above to determine TGI (tumor growth inhibition.
(§2) In embodiments, patients undergo biopsy of metastatic cancer, CT of the chest, abdomen and pelvis. In embodiments, drug sensitivity is tested within 7-10 days (or 2-3 days) of obtaining tissue. In embodiments, FIG. 12, organoids are prepared from a PDX biopsy 121 by collecting and digesting cells 122, seeding the cells in a 24 well plate 123, after incubation seeding cells from the 24 well plate in a 96 well plate 124 and screening drugs 125. […] Sensitivity to oxaliplatin at 100 nM, 1 μM, and 10 μM was tested on 8 organoids, CRC057, CRC119, CRC240, CRC16-159, CRC17-608, CRC18-347, CRC247 and CRC18-266, created using the above procedure. […] SN38 (7-ethyl-10-hydroxycamptothecin) was tested, rather than irinotecan, in organoids since irinotecan undergoes deesterification to SN-38 in vivo but not in vitro.

[2] = test system: CRC119 PDX; assay: as above; type: in vivo, mice; conditions: 10 mg/kg oxaliplatin or 20 mg/kg irinotecan weekly IP for three weeks
Source text: as §1, §2

[3] = test system: CRC240 PDX; assay: as above; type: in vivo, mice; conditions: 10 mg/kg oxaliplatin or 20 mg/kg irinotecan weekly IP for three weeks
Source text: as §1, §2

[4] = test system: 18-347 PDX; assay: as above; type: in vivo, mice; conditions: 10 mg/kg oxaliplatin weekly IP for three weeks
Source text: as §1, §2

[5] = test system: CRC057 PDX; assay: as above; type: in vivo, mice; conditions: 10 mg/kg oxaliplatin weekly IP for three weeks
Source text: as §1, §2

[6] = test system: CRC057; assay: High-throughput drug screen, CellTiter-Glo cell viability; type: cell-based, human; conditions: CRC057 cell line; 1 μM; 72 hours
Method: (§3) Unless otherwise noted all experiments were carried out using the following materials and methods which are here presented as examples and not limiting embodiments. All equivalent variants are contemplated as part of the presently disclosed subject matter. An Echo Acoustic Dispenser provided automated liquid handling for drug addition while cell plating was performed by a Thermo Fisher Well Mate and assays used a Clarioscan plate reader. The drugs assayed were stamped to the cell plates immediately prior to cell plating at a final concentration of 1 μM. The drug pre-coated plates were plated with 500-1000 cells/well. 72 hours after cell plating cell viabilities were assessed via a CellTiter-Glo Luminescent Cell Viability Assay.
(§4) In this embodiment matching cells lines 31 and PDXs are created 32. These can be developed as described in the Uronis and Kim papers previously incorporated by reference. Drugs may subsequently be screened using these cell lines 33 the results validated in vivo 34 and RNA-Seq and molecular analysis 35 used. As a non-limiting example, CRC057, CRC119, CRC240, CRC247 15-496, and 16-159 were derived from patient colorectal cancers. It should be understood by those of skill in the art that any suitable type of cancer sample may have been taken. High-throughput drug screens, including 119 FDA-approved drug compounds, were performed using the patient-derived cell lines. Any suitable type of high or low throughput drug screen of any FDA approved or non-FDA approved drug may be performed on the cell lines. […] 88%, 95%, 88, and 89% of CRC119 were killed by docetaxel 42, doxorubicin 41, and the vinca alkaloids vincristine and vinorelbine 43 respectively. 46%, 93%, 63% and 56% of CRC240 were killed by docetaxel 42, doxorubicin 41, and the vinca alkaloids vincristine and vinorelbine 43 respectively. 47% 83%, 46% and 46% of CRC057 were killed by docetaxel 42, doxorubicin 41, and the vinca alkaloids vincristine and vinorelbine 43 respectively. 25%, 70%, 37%, and 33% of CRC247 were killed by docetaxel 42, doxorubicin 41, and the vinca alkaloids vincristine and vinorelbine 43 respectively. […] CRC119 45 and 16-159 46 were sensitive to the standard of care cytotoxic chemotherapeutic agent irinotecan with 43% and 64% of cells killed respectively.

[7] = test system: organoid C; assay: Organoid cell viability / IC50; type: cell-based
Method: (§5) In embodiments organoids were created by embedding single cells in Matrigel on ice and seeding the cells in 48 well plates. After the Matrigel was polymerized for 10 minutes at 37° C. basal culture medium was overlaid containing at least one of the optimized growth factor combinations in FIG. 19.
(§6) ATAC-Seq tests were run to determine which pathways were up and down regulated in the presence of various drugs. […] The effectiveness of oxaliplatin 230, an FGFR1 inhibitor 231, along with oxaliplatin and an FGFR1 inhibitor 234 as cell killers was tested in the organoid as shown in FIG. 23. […] The cell killing potential of oxaliplatin 241, an oxytocin antagonist 243, along with oxaliplatin and an oxytocin antagonist 245 was tested as shown in FIG. 24.

[8] = test system: organoid A; assay: Organoid cell viability / IC50; type: cell-based; conditions: for IC50: organoid A
Method: as §5, §6

[9] = test system: organoid B; assay: Organoid cell viability / IC50; type: cell-based
Method: as §5, §6

[10] = test system: CRC18-347 organoid; assay: Organoid drug sensitivity assay (Cell Titer Glo); type: cell-based, human
Method: (§7) In embodiments, organoids are prepared by mincing a […] tissue sample into <2 mm^3 pieces. Samples are then digested in 5 mL of DMEMF-12+Penicillin Streptomycin+Rock inhibitor Y-27632 along with 20 μL of 0.25% Trypsin/EDTA for an hour with manual inversion every 10 minutes. After being spun down at 1500 RPM the pellet is washed with 5 mL of 10% FBS. During each of 3 washes the material is pipetted slowly about fifteen times. After each wash supernatant is collected and passed through a 70 μm cell strainer. Collected washes are spun down for five minutes at 1500 RPM and the pellet mixed with a 4:1 mixture of Matrigel®/PBS and plated. After the Matrigel® solidifies 1 mL of media is added to each well.
(§8) Collected matrigel is spun for 7 minutes at 1500 RPM. The pellet is collected and resuspended in 300 μL of PBS. 50 μL of this mixture is then mixed with 50 μL of a 1:1 mixture of matrigel/PBS. 5 μL of this mixture is then added to the center of each well in a 96 well plate and the plate incubated until the matrigel solidifies. […] After 90 μL of media is added and the plate is incubated at 37° C. for 24 hours, 5 μL of the tested drug is added to each well. Example concentrations, such as 100 nM, 1 μM and 10 μM concentrations, may be tested in triplicate. After the plate is incubated at 37° C. for 48 hours, 40 μL of Cell Titer Glo for organoids is added to each well to determine drug sensitivity.
as §2

[11] = test system: CRC119 organoid; assay: Organoid drug sensitivity assay (Cell Titer Glo); type: cell-based, human; conditions: SN38 tested rather than irinotecan in organoids
Method: as §7, §8, §2

[12] = test system: CRC057 organoid; assay: Organoid drug sensitivity assay (Cell Titer Glo); type: cell-based, human
Method: as §7, §8, §2

[13] = test system: CRC240 organoid; assay: Organoid drug sensitivity assay (Cell Titer Glo); type: cell-based, human; conditions: SN38 tested rather than irinotecan in organoids
Method: as §7, §8, §2

[14] = test system: CRC16-159 organoid; assay: Organoid drug sensitivity assay (Cell Titer Glo); type: cell-based, human
Method: as §7, §8, §2

[15] = test system: CRC247; assay: High-throughput drug screen, CellTiter-Glo cell viability; type: cell-based, human; conditions: CRC247 cell line; 1 μM; 72 hours
Method: as §3, §4

[16] = test system: CRC240; assay: as above; type: cell-based, human; conditions: CRC240 cell line; 1 μM; 72 hours
Method: as §3, §4

[17] = test system: CRC119; assay: as above; type: cell-based, human; conditions: CRC119 cell line; 1 μM; 72 hours
Method: as §3, §4

[18] = test system: 16-159; assay: as above; type: cell-based, human; conditions: 16-159 cell line; 1 μM; 72 hours
Method: as §3, §4

[19] = test system: CRC240; assay: In vitro screening, ponatinib IC50 (cell viability); type: cell-based; conditions: Homo sapiens, 72 hours after drug addition
Method: (§9) For in vitro screening, cell lines were cultured in DMEM+10% FBS+1% Penicillin/Streptomycin and plated in drug free medium. Ponatinib solubilized in DMSO was added to cell lines containing between 3000-6000 cells that had been incubated at 37° C. for 24 hours. Each cell line was exposed to seven different drug combinations between 1.6 nM and 25 μM. Five replicates were used for each drug concentration. 72 hours after drug addition cell viability assay and IC50 values were calculated for each cell line using GraphPad Prism software.
(§10) Reanalyzing the screen data, FIG. 6A identified axitinib 61, sunitinib 62, and dasatinib 63 as targeting similar pathways as ponatinib 64. […] Pre and post ponatinib treatment the major signaling pathways downstream of FGFR, FIG. 7C, not only show a decrease in STAT expression FIG. 8 in CRC119 81, CRC240 83, and CRC057 85 but an increase in p-AKT expression in CRC 119 86, CRC240 87, and CRC057 88. Expression of p-ERK increased in CRC240 89, and CRC057 82 as well.

[20] = test system: CRC 119; assay: as above; type: cell-based; conditions: Homo sapiens, 72 hours after drug addition
Method: as §9, §10

[21] = test system: CRC057; assay: as above; type: cell-based; conditions: Homo sapiens, 72 hours after drug addition
Method: as §9, §10

[22] = test system: CRC cell lines; assay: High-throughput drug screen, panel of patient-derived cell lines; type: cell-based; conditions: Homo sapiens, in 4/6 cell lines, mined drug screen data, read-out: inhibits growth
Method: as §3
In this embodiment matching cells lines 31 and PDXs are created 32. These can be developed as described in the Uronis and Kim papers previously incorporated by reference. Drugs may subsequently be screened using these cell lines 33 the results validated in vivo 34 and RNA-Seq and molecular analysis 35 used. As a non-limiting example, CRC057, CRC119, CRC240, CRC247 15-496, and 16-159 were derived from patient colorectal cancers. It should be understood by those of skill in the art that any suitable type of cancer sample may have been taken. High-throughput drug screens, including 119 FDA-approved drug compounds, were performed using the patient-derived cell lines. […]

O=C1[O][Pt]2([NH][C@@H]3CCCC[C@H]3[NH]2)[O]C1=O [oxaliplatin]
PDX sensitivity [1]: resistant
PDX sensitivity [2]: resistant
PDX sensitivity [3]: resistant
PDX sensitivity [4]: sensitive
PDX sensitivity [5]: sensitive
cells killed [6]: 46%
IC50 [7]: 21700 nM
organoid sensitivity ([8]; Organoid A, from the IC50 data): resistant
IC50 [8]: 128000 nM
IC50 [9]: 7010 nM
organoid sensitivity ([10]; 18-347 organoid): sensitive
killing ([10]; CRC18-347 organoid, 1 μM): > 50%
organoid sensitivity [11]: resistant
organoid sensitivity [12]: sensitive
killing ([12]; 1 μM): > 50%
organoid sensitivity [13]: resistant
organoid sensitivity [14]: resistant

COc1cccc2c1C(=O)c1c(O)c3c(c(O)c1C2=O)C[C@@](O)(C(=O)CO)C[C@@H]3O[C@H]1C[C@H](N)[C@H](O)[C@H](C)O1 [doxorubicin]
cells killed [15]: 70%
cells killed [16]: 93%
cells killed [6]: 83%
cells killed [17]: 95%

CC[C@]1(O)C[C@H]2CN(CCc3c([nH]c4ccccc34)[C@@](C(=O)OC)(c3cc4c(cc3OC)N(C=O)[C@H]3[C@@](O)(C(=O)OC)[C@H](OC(C)=O)[C@]5(CC)C=CCN6CC[C@]43[C@@H]65)C2)C1 [vincristine]
cells killed [15]: 37%
cells killed [16]: 63%
cells killed [6]: 46%
cells killed [17]: 88%

CCC1=C[C@@H]2CN(C1)Cc1c([nH]c3ccccc13)[C@@](C(=O)OC)(c1cc3c(cc1OC)N(C)[C@H]1[C@@](O)(C(=O)OC)[C@H](OC(C)=O)[C@]4(CC)C=CCN5CC[C@]31[C@@H]54)C2 [vinorelbine]
cells killed [15]: 33%
cells killed [16]: 56%
cells killed [6]: 46%
cells killed [17]: 89%

CC(=O)O[C@@]12CO[C@@H]1C[C@H](O)[C@@]1(C)C(=O)[C@H](O)C3=C(C)[C@@H](OC(=O)[C@H](O)[C@@H](NC(=O)OC(C)(C)C)c4ccccc4)C[C@@](O)([C@@H](OC(=O)c4ccccc4)[C@H]21)C3(C)C [docetaxel]
cells killed [15]: 25%
cells killed [16]: 46%
cells killed [6]: 47%
cells killed [17]: 88%

O=c1[nH]cc(F)c(=O)[nH]1 [fluorouracil]
IC50 [7]: 125 nM
IC50 [8]: 3960 nM
IC50 [9]: 37 nM

CCc1c2c(nc3ccc(O)cc13)-c1cc3c(c(=O)n1C2)COC(=O)[C@]3(O)CC [SN38, 7-ethyl-10-hydroxycamptothecin]
IC50 [7]: 32.6 nM
IC50 [8]: 11.6 nM
IC50 [9]: 43900 nM

CCc1c2c(nc3ccc(OC(=O)N4CCC(N5CCCCC5)CC4)cc13)-c1cc3c(c(=O)n1C2)COC(=O)[C@]3(O)CC [irinotecan]
PDX sensitivity [2]: sensitive
PDX sensitivity [3]: sensitive
cells killed [18]: 64%
cells killed [17]: 43%
organoid sensitivity [11]: sensitive
organoid sensitivity [13]: sensitive

Cc1ccc(C(=O)Nc2ccc(CN3CCN(C)CC3)c(C(F)(F)F)c2)cc1C#Cc1cnc2cccnn12 [ponatinib]
IC50 [19]: 1100 nM
IC50 [20]: 1100 nM
IC50 [21]: 700 nM
inhibition at 1 µM [22]: ≥ 50%
